± gives the expanded uncertainty stated by the source.
Experiments:
[1] = refractive index (Na D-line) (dimensionless); settings: 293.2 K; 101.33 kPa; Liquid; Standard Abbe refractometry
[2] = Liquid; for mass density: 293.2 K, 101.33 kPa; for Normal boiling temperature: Distillation
[3] = Boiling temperature at pressure P; settings: 1.733 kPa; Liquid; Distillation

refractive index [1]	mass density [2] [kg/m3]	Normal boiling temperature [2] [°C]	Boiling temperature at pressure P [3] [°C]	Compound
1.37144 ± 0.0007	1220.04 ± 1	101.2 ± 0.2	–	O=CO [formic acid]
1.42825 ± 0.0007	1061.72 ± 0.56	–	115 ± 1	COC(=O)CCCCC(=O)OC [dimethyl 1,6-hexanedioate]
1.41969 ± 0.00078	1119.13 ± 1.6	196.1 ± 0.2	–	COC(=O)CCC(=O)OC [dimethyl 1,4-butanedioate]
1.42454 ± 0.0007	1087.67 ± 0.63	214.2 ± 0.2	–	COC(=O)CCCC(=O)OC [dimethyl pentanedioate]
